In PMC11842024, “Reversible male contraception by targeted inhibition of serine/threonine kinase 33” (Science (New York, N.Y.), 2024):

Experiment: Deaths and body weight during treatment
Assay type: in vivo, mice
Method: using individual calibration curves established with the corresponding tissue homogenates from untreated mice. The calibration curve was regressed with a weight of 1/x2 with high linearity (r2 […]
Spatial distribution of CDD-2807 in testis. The testis from the mice treated with CDD-2807 were attached to the Leica CM3050 S cryostat (Leica Biosystems, Deer Park, IL) with water and then sectioned at the thickness of 10 μm at −20°C. The sections were attached to electrically conductive glass slides coated with indium tin oxide ([…], 70-100 ohms, Delta Technologies, Loveland, CO). Tissue sections were sprayed with a matrix solution containing 35 mg/mL 2,5-dihydroxybenzoic acid (DHB, Sigma, St. Louis, MO) in 70% aqueous CH3OH with 0.1% trifluoroacetic acid using an HTX TM-Sprayer (HTX Technologies LLC, Carrboro, NC). Sprayer nozzle temperature was set at 70°C, tray temperature at 40°C, nozzle velocity at 1200 mm/min, track spacing at 2 mm, drying time for 10 sec and nitrogen gas pressure at 10 psi. The data were collected on the Bruker TimsTOF MS MALDI-2 instrument with the resolution at 40 µm/pixel (mass range 100−1000 Da under the positive mode) using DHB ion as the on-line calibrant. The data was analyzed, and the images were plotted by SciLs Lab software (Bruker, Billerica, MA). […]
Alanine transaminase (ALT) and aspartate transaminase (AST) assays. […] ALT and AST levels were measured in duplicates using assay kits (StanBio, Boerne, TX) according to the manufacturer's instructions. ALT and AST levels were determined using the rate of NADH oxidation, which was quantified by measuring absorbance at 340 nm using a CLARIOstar plate reader (BMG Labtech in Cary, NC). ALT and AST were tested for significance at multiple collection time points, tests for significance included a test for normality (Shapiro-Wilk test) and following the test for normality were then analyzed using an unpaired t-test with significance determined by an alpha of P = 0.05. […]
Fertility analysis. […] Weights were measured daily prior to drug administration and monitored throughout the entirety of the injection period. […]

Which results are given for `O=C(c1ccc2[nH]nc(C#Cc3ccccc3-c3ccccc3)c2c1)N1CC2(CCCNC2)C1` [CDD-2807]?
mouse body weights (50 mg/kg/day for 7 days (Protocol 3)): 27.05 ± 0.79 g; deaths during the period of treatment (protocols 1 and 2): no deaths; weight changes during the period of treatment (protocols 1 and 2): no significant weight changes
